Source: publication PMC8459971, “Evaluation of the hepatotoxicity of the novel GPR40 (FFAR1) agonist CPL207280 in the rat and monkey” (PLoS ONE, 2021)
Where “and” joins values, the source holds several entries; their conditions need not be identical. Equal entries are not always repeated. Where two headings read alike, the source gives them in different places.

Assays:
[1] = target: T1, OAT1 (Homo sapiens, UniProt Q4U2R8); experiment: Uptake transporter inhibition assay, OAT1; conditions: OAT1; reference inhibitor 300 µM;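 note: HEK293FT cells expressing OAT1 or mock, uptake of radiolabeled probe substrate at 37 °C in HBSS pH 7.4 with test compound or solvent, cell lysate read by liquid scintillation counting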
T1 sequence (Q4U2R8 1-563): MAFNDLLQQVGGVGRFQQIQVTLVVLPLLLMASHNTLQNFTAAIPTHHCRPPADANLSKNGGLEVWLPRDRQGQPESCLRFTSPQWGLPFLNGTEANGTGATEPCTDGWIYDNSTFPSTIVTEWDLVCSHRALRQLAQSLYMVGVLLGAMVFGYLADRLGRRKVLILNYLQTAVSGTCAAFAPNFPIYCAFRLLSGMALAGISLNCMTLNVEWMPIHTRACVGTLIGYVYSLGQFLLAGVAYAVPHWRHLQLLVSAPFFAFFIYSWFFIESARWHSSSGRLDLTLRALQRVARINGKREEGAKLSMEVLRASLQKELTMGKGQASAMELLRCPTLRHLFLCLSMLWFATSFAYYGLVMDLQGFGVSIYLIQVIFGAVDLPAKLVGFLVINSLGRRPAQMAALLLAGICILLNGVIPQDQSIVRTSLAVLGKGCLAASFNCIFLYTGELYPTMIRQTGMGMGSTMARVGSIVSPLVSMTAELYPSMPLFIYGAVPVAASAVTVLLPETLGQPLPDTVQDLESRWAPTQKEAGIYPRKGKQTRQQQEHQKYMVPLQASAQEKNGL
Protocol: (§2) For the uptake transporter inhibition assay, cells were washed twice with 100 μL of the appropriate buffer (HK, pH 7.4) for OATP1B1, followed by HBSS (pH 7.4) for (NTCP, OAT1, OAT2v1, OATP1A2, and OATP1B3). Uptake experiments were carried out at 37 ± 1°C in 50 μL of the respective buffer containing the probe substrate and the compound or solvent. […] After the experiment, cells were washed twice with 100 μL of cold appropriate buffer and lysed with 50 μL of 0.1 M NaOH. Radiolabeled probe substrate transport was determined by measuring an aliquot (35 μL) from each well for liquid scintillation counting.

[2] = target: MRP2 (Homo sapiens, UniProt Q92887); experiment: Vesicular transport inhibition assay, MRP2; conditions: MRP2; reference inhibitor 200 µM;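 note: membrane vesicles with probe substrate plus 2 mM glutathione, incubated with 4 mM ATP or AMP (AMP as background control), vesicle-retained substrate measured by liquid scintillation counting; ATP 4 mM vs AMP background separates transporter uptake from diffusion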
Protocol: In the vesicular transport inhibition assay (for BSEP, MRP) compounds were incubated with membrane vesicle preparations and the probe substrate. Incubations were carried out in the presence of 4 mM ATP or AMP to distinguish between transporter-mediated uptake and passive diffusion into the vesicles. For MRP2 and MRP3, reactions were carried out in the presence of 2 mM glutathione. Compounds were added to the reaction mixture in 0.75 μL of solvent (1% of the final incubation volume). […] Reactions were initiated by the addition of 25 μL of 12 mM MgATP (or 12 mM AMP in assay buffer as a background control) and preincubated separately. Reactions were quenched by the addition of 200 μL of ice-cold washing buffer and immediate filtration via glass fiber filters mounted on a 96-well plate (filter plate). The filters were washed (5 × 200 μL of ice-cold washing buffer), dried, and the amount of substrate inside the filtered vesicles was determined by liquid scintillation counting.

[3] = target: T2, OAT2v1 (Homo sapiens, UniProt Q9Y694); experiment: Uptake transporter inhibition assay, OAT2v1; assay type: cell-based; conditions: OAT2v1; reference inhibitor 300 µM
T2 construct: expressed in transfected cells; host or cells: HEK cells
T2 sequence (Q9Y694 1-546 isoform Q9Y694-2): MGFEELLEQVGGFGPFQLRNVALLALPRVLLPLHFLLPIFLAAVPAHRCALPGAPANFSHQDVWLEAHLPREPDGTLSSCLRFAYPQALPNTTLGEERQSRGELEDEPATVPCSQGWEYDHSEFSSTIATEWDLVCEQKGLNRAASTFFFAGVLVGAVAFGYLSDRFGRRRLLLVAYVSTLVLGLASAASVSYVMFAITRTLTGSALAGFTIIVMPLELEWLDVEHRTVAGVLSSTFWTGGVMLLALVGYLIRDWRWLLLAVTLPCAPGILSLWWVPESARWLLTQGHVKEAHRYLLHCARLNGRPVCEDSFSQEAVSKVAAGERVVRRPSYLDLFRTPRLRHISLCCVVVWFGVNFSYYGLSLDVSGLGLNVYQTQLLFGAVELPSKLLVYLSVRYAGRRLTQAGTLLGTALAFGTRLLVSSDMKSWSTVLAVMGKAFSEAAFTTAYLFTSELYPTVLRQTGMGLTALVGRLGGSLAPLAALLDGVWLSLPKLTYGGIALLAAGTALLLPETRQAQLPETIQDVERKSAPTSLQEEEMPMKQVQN
Protocol: (§1) For the uptake transporter inhibition assay, cells were washed twice with 100 μL of the appropriate buffer (HK, pH 7.4) for OATP1B1, followed by HBSS (pH 7.4) for (NTCP, OAT1, OAT2v1, OATP1A2, and OATP1B3). Uptake experiments were carried out at 37 ± 1°C in 50 μL of the respective buffer containing the probe substrate and the compound or solvent.

[4] = target: OATP1A2 (Homo sapiens, UniProt P46721); experiment: Uptake transporter inhibition assay, OATP1A2; conditions: OATP1A2; reference inhibitor 500 µM;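 note: cellular uptake of a radiolabeled probe substrate in HBSS pH 7.4 at 37 °C with test compound or solvent, measured by liquid scintillation counting of cell lysates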
Protocol: as §2

[5] = target: T3, NTCP (Homo sapiens, UniProt Q14973); experiment: Uptake transporter inhibition assay, NTCP; assay type: cell-based; conditions: NTCP; reference inhibitor 300 µM
T3 construct: expressed in transfected cells; host or cells: HEK cells
T3 sequence (Q14973 1-349): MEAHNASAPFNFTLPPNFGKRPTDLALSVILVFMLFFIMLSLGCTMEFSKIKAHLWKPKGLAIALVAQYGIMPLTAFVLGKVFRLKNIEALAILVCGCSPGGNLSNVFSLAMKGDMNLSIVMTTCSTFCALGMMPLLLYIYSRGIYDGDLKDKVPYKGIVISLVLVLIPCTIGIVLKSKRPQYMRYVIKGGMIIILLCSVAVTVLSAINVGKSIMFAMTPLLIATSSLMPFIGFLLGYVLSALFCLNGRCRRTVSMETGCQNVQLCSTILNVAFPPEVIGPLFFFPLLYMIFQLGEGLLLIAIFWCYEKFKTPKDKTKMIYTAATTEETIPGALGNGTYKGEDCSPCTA
Protocol: as §1

[6] = tested on: HepaRG spheroids; experiment: HepaRG 3D spheroids, cell and mitochondrial health markers, 14 days; conditions: TIMEPOINT 336
Protocol: Hepatic spheroids were formed by seeding HepaRG™ cells into round-bottom ultra-low adhesion 96-well spheroid plates (Corning®) in 3D liver media with 0.5% DMSO, 100 U/mL penicillin, and 100 mg/L streptomycin. Cells were incubated at 37°C and 5% CO2 until spheroid formation and then compound-treated. The test compound was diluted in the vehicle, and serial dilutions were made in a 0.5% vehicle in HepaRG™ induction media. […] L-buthionine sulfoximine was used as positive control for GSH content, whereas rotenone was simultaneously used as a positive control for mitochondrial dysfunction and ATP content. At the end of the incubation period, the cells were loaded with the relevant dye for each cell health marker: DNA structure–Hoescht, GSH content–mBCL, ROS formation–DHE, mitochondrial dysfunction–MitoTracker, and cellular ATP content–CellTiter-Glo®, Promega. The plate was then scanned using an automated confocal fluorescent cellular imager, ArrayScan® XTI (Thermo Scientific Cellomics) at 37°C and 5% CO2. Further, the cellular ATP content was measured using CellTiter-Glo® (Promega, USA).

[7] = HepaRG spheroid, at the concentration (uM) given
[8] = HepaRG spheroid, plotted value at the concentration given

Sequence of MRP2 (Q92887 whole entry, the tested form may be a part): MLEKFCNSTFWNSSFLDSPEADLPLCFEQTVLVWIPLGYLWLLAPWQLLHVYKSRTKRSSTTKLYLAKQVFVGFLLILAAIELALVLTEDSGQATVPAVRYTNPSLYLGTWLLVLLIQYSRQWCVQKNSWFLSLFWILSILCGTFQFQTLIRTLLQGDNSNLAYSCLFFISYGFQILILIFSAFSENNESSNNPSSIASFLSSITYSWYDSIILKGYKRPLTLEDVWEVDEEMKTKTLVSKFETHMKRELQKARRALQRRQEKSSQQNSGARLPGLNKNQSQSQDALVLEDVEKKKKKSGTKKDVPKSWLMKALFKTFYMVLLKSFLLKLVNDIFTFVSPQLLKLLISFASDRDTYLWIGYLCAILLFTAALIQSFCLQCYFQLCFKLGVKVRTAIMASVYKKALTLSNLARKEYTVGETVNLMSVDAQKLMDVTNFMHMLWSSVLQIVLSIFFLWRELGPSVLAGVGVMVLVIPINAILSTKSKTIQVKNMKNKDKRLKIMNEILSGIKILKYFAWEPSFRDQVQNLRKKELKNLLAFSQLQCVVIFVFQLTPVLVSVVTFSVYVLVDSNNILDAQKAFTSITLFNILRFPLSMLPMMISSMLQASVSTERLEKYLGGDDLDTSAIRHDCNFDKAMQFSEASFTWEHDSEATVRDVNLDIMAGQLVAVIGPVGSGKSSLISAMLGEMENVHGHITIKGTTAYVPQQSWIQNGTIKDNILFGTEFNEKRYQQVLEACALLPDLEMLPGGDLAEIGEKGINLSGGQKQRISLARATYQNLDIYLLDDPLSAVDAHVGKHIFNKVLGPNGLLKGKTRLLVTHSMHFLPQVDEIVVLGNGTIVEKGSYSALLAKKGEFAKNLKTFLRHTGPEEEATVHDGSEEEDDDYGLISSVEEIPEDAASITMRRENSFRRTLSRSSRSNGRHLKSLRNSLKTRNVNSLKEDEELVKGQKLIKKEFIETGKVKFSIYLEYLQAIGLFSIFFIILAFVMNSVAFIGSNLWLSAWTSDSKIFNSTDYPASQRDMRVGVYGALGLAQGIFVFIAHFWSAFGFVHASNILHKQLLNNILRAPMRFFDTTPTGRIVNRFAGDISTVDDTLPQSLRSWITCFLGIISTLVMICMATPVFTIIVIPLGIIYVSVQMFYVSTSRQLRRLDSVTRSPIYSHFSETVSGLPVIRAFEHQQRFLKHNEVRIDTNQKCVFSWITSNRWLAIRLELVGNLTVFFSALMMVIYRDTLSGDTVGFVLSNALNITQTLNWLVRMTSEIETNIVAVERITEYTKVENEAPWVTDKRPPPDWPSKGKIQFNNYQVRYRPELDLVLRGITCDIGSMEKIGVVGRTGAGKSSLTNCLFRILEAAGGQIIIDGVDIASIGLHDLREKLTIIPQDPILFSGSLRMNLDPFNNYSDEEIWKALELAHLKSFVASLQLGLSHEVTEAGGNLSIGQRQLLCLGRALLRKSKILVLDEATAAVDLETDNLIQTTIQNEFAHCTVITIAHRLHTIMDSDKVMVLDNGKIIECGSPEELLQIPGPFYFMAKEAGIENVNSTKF
Sequence of OATP1A2 (P46721 whole entry): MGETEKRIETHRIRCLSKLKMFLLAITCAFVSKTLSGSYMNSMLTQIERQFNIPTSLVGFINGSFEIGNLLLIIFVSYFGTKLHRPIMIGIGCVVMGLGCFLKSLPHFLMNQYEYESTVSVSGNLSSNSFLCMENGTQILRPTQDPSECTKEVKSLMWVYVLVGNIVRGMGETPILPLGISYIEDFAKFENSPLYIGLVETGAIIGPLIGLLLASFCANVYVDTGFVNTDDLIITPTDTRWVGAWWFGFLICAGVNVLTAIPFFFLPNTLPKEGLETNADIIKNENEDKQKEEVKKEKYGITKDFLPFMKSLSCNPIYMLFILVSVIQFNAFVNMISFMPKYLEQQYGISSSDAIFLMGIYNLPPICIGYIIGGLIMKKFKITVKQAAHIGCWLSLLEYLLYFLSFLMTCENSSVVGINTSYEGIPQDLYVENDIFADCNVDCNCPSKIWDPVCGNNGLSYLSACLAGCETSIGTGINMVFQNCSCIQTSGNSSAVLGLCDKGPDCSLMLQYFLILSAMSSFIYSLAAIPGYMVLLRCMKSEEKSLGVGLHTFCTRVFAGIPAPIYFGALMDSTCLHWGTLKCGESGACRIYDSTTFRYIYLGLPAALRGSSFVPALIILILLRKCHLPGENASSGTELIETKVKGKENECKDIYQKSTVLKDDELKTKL

CCc1oc2ccccc2c1C(=O)c1cc(Br)c(O)c(Br)c1 [Benzbromarone]
Accumulation (counts per minute; CPM) HEK293FT-MOCK [1]: 48 CPM and 31 CPM and 32 CPM and 38 CPM | Accumulation (counts per minute; CPM) HEK293FT-OAT1 [1]: 76 CPM and 82 CPM and 74 CPM and 83 CPM | Accumulation (counts per minute; CPM) with AMP [2]: 198 CPM and 209 CPM | Accumulation (counts per minute; CPM) with ATP [2]: 183 CPM and 176 CPM

COc1ccc2c(c1)c(CC(=O)O)c(C)n2C(=O)c1ccc(Cl)cc1 [Indomethacin]
Accumulation (counts per minute; CPM) HEK293FT-OAT2v1 [3]: 503 CPM and 467 CPM and 353 CPM and 367 CPM

O=C1OC(c2ccc(O)c(S(=O)(=O)O)c2)(c2ccc(O)c(S(=O)(=O)O)c2)c2c(Br)c(Br)c(Br)c(Br)c21 [Sulfobromophthalein]
Accumulation (counts per minute; CPM) HEK293FT-MOCK [4]: 79 CPM and 76 CPM and 86 CPM | Accumulation (counts per minute; CPM) HEK293FT-OATP1A2 [4]: 880 CPM and 817 CPM and 881 CPM and 862 CPM

C[C@H](CCC(=O)NCCS(=O)(=O)O)[C@H]1CC[C@H]2[C@@H]3[C@H](O)C[C@@H]4C[C@H](O)CC[C@]4(C)[C@H]3CC[C@]12C [TCDC]
Accumulation (counts per minute; CPM) HEK293-NTCP [5]: 257 CPM and 289 CPM and 184 CPM and 282 CPM | Accumulation (counts per minute; CPM) HEK293FT-MOCK [5]: 24 CPM and 25 CPM and 21 CPM and 27 CPM

N#CC(C#N)=NNc1cccc(Cl)c1 [carbonyl cyanide 3-chlorophenylhydrazone]
Cellular ATP Mean Plotted Value ([6]; CONC 0.04 uM): 1.06 | DNA structure Mean Plotted Value ([6]; CONC 0.04 uM): 0.942 | Glutathione content Mean Plotted Value ([6]; CONC 0.04 uM): 0.925 | Mitochondrial mass Mean Plotted Value ([6]; CONC 0.04 uM): 1.13 | Mitochondrial membrane potential Mean Plotted Value ([6]; CONC 0.04 uM): 1.05 | Oxidative stress Mean Plotted Value ([6]; CONC 0.04 uM): 1.02 | Spheroid count Mean Plotted Value ([6]; CONC 0.04 uM): 1 | Spheroid size Mean Plotted Value ([6]; CONC 0.04 uM): 1.01 | Cellular ATP Mean Plotted Value ([6]; CONC 0.1 uM): 1.01 | DNA structure Mean Plotted Value ([6]; CONC 0.1 uM): 1.05 | Glutathione content Mean Plotted Value ([6]; CONC 0.1 uM): 0.914 | Mitochondrial mass Mean Plotted Value ([6]; CONC 0.1 uM): 1.06 | Mitochondrial membrane potential Mean Plotted Value ([6]; CONC 0.1 uM): 1.15 | Oxidative stress Mean Plotted Value ([6]; CONC 0.1 uM): 1 | Spheroid count Mean Plotted Value ([6]; CONC 0.1 uM): 1 | Spheroid size Mean Plotted Value ([6]; CONC 0.1 uM): 1.04 | Cellular ATP Mean Plotted Value ([6]; CONC 0.4 uM): 0.966 | DNA structure Mean Plotted Value ([6]; CONC 0.4 uM): 1.07 | Glutathione content Mean Plotted Value ([6]; CONC 0.4 uM): 0.993 | Mitochondrial mass Mean Plotted Value ([6]; CONC 0.4 uM): 0.994 | Mitochondrial membrane potential Mean Plotted Value ([6]; CONC 0.4 uM): 1.07 | Oxidative stress Mean Plotted Value ([6]; CONC 0.4 uM): 0.993 | Spheroid count Mean Plotted Value ([6]; CONC 0.4 uM): 1 | Spheroid size Mean Plotted Value ([6]; CONC 0.4 uM): 0.969 | Cellular ATP Mean Plotted Value ([6]; CONC 1 uM): 0.843 | DNA structure Mean Plotted Value ([6]; CONC 1 uM): 0.905 | Glutathione content Mean Plotted Value ([6]; CONC 1 uM): 0.819 | Mitochondrial mass Mean Plotted Value ([6]; CONC 1 uM): 1.11 | Mitochondrial membrane potential Mean Plotted Value ([6]; CONC 1 uM): 0.995 | Oxidative stress Mean Plotted Value ([6]; CONC 1 uM): 1.12 | Spheroid count Mean Plotted Value ([6]; CONC 1 uM): 1 | Spheroid size Mean Plotted Value ([6]; CONC 1 uM): 0.994 | Cellular ATP Mean Plotted Value ([6]; CONC 4 uM): 0.0197 | DNA structure Mean Plotted Value ([6]; CONC 4 uM): 0.726 | Glutathione content Mean Plotted Value ([6]; CONC 4 uM): 0.176 | Mitochondrial mass Mean Plotted Value ([6]; CONC 4 uM): 0.851 | Mitochondrial membrane potential Mean Plotted Value ([6]; CONC 4 uM): 0.876 | Oxidative stress Mean Plotted Value ([6]; CONC 4 uM): 1.36 | Spheroid count Mean Plotted Value ([6]; CONC 4 uM): 1 | Spheroid size Mean Plotted Value ([6]; CONC 4 uM): 0.828 | Cellular ATP Mean Plotted Value ([6]; CONC 10 uM): -0.000228 | DNA structure Mean Plotted Value ([6]; CONC 10 uM): 0.0956 | Glutathione content Mean Plotted Value ([6]; CONC 10 uM): 0.111 | Mitochondrial mass Mean Plotted Value ([6]; CONC 10 uM): 0.763 | Mitochondrial membrane potential Mean Plotted Value ([6]; CONC 10 uM): 0.627 | Oxidative stress Mean Plotted Value ([6]; CONC 10 uM): 1.36 | Spheroid count Mean Plotted Value ([6]; CONC 10 uM): 1 | Spheroid size Mean Plotted Value ([6]; CONC 10 uM): 0.751 | Cellular ATP Mean Plotted Value ([6]; CONC 40 uM): -0.000179 | DNA structure Mean Plotted Value ([6]; CONC 40 uM): 0.0736 | Glutathione content Mean Plotted Value ([6]; CONC 40 uM): 0.0824 | Mitochondrial mass Mean Plotted Value ([6]; CONC 40 uM): 0.515 | Mitochondrial membrane potential Mean Plotted Value ([6]; CONC 40 uM): 0.236 | Oxidative stress Mean Plotted Value ([6]; CONC 40 uM): 0.339 | Spheroid count Mean Plotted Value ([6]; CONC 40 uM): 1 | Spheroid size Mean Plotted Value ([6]; CONC 40 uM): 0.674 | Cellular ATP Mean Plotted Value ([6]; CONC 100 uM): 8.57e-5 | DNA structure Mean Plotted Value ([6]; CONC 100 uM): 0.0501 | Glutathione content Mean Plotted Value ([6]; CONC 100 uM): 0.0467 | Mitochondrial mass Mean Plotted Value ([6]; CONC 100 uM): 0.488 | Mitochondrial membrane potential Mean Plotted Value ([6]; CONC 100 uM): 0.132 | Oxidative stress Mean Plotted Value ([6]; CONC 100 uM): 0.234 | Spheroid count Mean Plotted Value ([6]; CONC 100 uM): 1 | Spheroid size Mean Plotted Value ([6]; CONC 100 uM): 0.58 | Cellular ATP MEC ([6]; HepaRG spheroid): 0.829 µM | DNA structure MEC ([6]; HepaRG spheroid): 3.51 µM | Glutathione content MEC ([6]; HepaRG spheroid): 0.876 µM | Mitochondrial mass MEC ([6]; HepaRG spheroid): 6.35 µM | Mitochondrial membrane potential MEC ([6]; HepaRG spheroid): 5.82 µM | Oxidative stress MEC ([6]; HepaRG spheroid): 1.46 µM | Spheroid size MEC ([6]; HepaRG spheroid): 2.63 µM | Cellular ATP MR (% @ concentration) [6, 7]: 100% | DNA structure MR (% @ concentration) [6, 7]: 95% | Glutathione content MR (% @ concentration) [6, 7]: 91% | Mitochondrial mass MR (% @ concentration) [6, 7]: 52% | Mitochondrial membrane potential MR (% @ concentration) [6, 7]: 88% | Oxidative stress MR (% @ concentration) [6, 7]: 37% | Spheroid size MR (% @ concentration) [6, 7]: 35% | Cellular ATP MR [6, 8]: -0.000228 | DNA structure MR [6, 8]: 0.0501 | Glutathione content MR [6, 8]: 0.0824 | Mitochondrial mass MR [6, 8]: 0.515 | Mitochondrial membrane potential MR [6, 8]: 0.132 | Oxidative stress MR [6, 8]: 1.36 | Spheroid size MR [6, 8]: 0.674 | AC50 ([6]; read-out: Cellular ATP AC50, HepaRG spheroid): 1.63 µM | AC50 ([6]; read-out: DNA structure AC50, HepaRG spheroid): 5.13 µM | AC50 ([6]; read-out: Glutathione content AC50, HepaRG spheroid): 2.19 µM | AC50 ([6]; read-out: Mitochondrial mass AC50, HepaRG spheroid): 35.7 µM | AC50 ([6]; read-out: Mitochondrial membrane potential AC50, HepaRG spheroid): 12.4 µM | AC50 ([6]; read-out: Oxidative stress AC50, HepaRG spheroid): 15.4 µM | AC50 ([6]; read-out: Spheroid count AC50, HepaRG spheroid): > 100 µM | AC50 ([6]; read-out: Spheroid size AC50, HepaRG spheroid): > 40 µM
